The source of these data is patent US6407099B1, “Arylpiperidinopropanol and arylpiperazinopropanol derivatives and pharmaceuticals containing the same” (Suntory Limited, priority 1997, dated 2002).

SMILES strings stand for the structures.

In one data set the test system is DBA/2N type mice. Nature of the data set: Audiogenic seizure suppressing effect. Format: in vivo. Conditions: compound 10 mg/kg, i.p., audio stimulus after 20 minutes, seizure score; for inhibition in vivo at 10 mg/kg: Mus musculus, ip, 20 min, read-out: Antiseizure effect (suppression rate %); for Antiseizure effect (suppression rate %): 10 mg/kg. How it is done:
Audiogenic Seizure Suppressing Effect
The audiogenic seizure suppressing effect of the compounds was evaluated by the method of Sarro et al. [G. B. De Sarro et al., Br. J. Pharmacol., 93, 247 (1988)]. That is, the compound dissolved in 10% 2-hydroxypropyl-β-cyclodextrin was administered intraperitoneally to DBA/2N type mice (male, 3 weeks old). After 20 minutes, a supersonic washer was used to apply audio stimulus of at least 90 dB for 1 minute. The wild running (WR), clonic seizures (clonus), tonic seizures (tonus), and the respiratory arrest (RA) were observed. The seizure suppressing effect was evaluated from the rate of suppression of the average value of the seizure score found as 0=no response, 1=WR, 2=clonus, 3=tonus, and 4=RA.

The next data set concerns T-type Ca^2+ channel. In words: T-type calcium channel inhibitory effect (whole-cell patch clamp, hippocampal CA1 pyramidal cells). It counts as cell-based, Wistar rats. Conditions: rat hippocampal CA1 pyramidal cells; peak current after 1 minute of application. How it is done: T-Type Calcium Channel Inhibitory Effect
The hippocampal CA1 pyramidal cells were isolated from Wistar rats (female, 1 week old) in according to the method reported by Takahashi et al. [K. Takahashi et al.; J. Pharmacol. Exp. Ther., 256, 169 (1991)] and the T-type calcium current was measured under conditions of a fixed membrane potential using the whole-cell configuration of the patch clamp technique. The effects of the compounds were evaluated from the rate of suppression of the peak current after 1 minute of application using the concentration clamp method.
A general note: In patch-clamp work, channel activity is measured electrically.

Another data set addresses T1, Dopamine D2 receptor (Rattus norvegicus, UniProt P61169).
T1 construct: membrane fraction prepared from the striatum of Wistar male rats; from tissue; host or cells: rat striatum membrane fraction
Nature of the data set: Dopamine D2 receptor blocking action ([^3H] raclopride, striatum membrane fraction). Format: binding, Wistar male rats. To be noted: 1.0 nM [^3H] raclopride, 25° C., 1 hour. How it is done:
Dopamine D2 Receptor Blocking Action
57 μl of the membrane fraction prepared from the striatum of Wistar male rats (6 weeks old) was incubated together with the compound and 1.0 nM [^3H] raclopride in a buffer at 25° C. for 1 hour. A GF/C glass filter (0.1% polyethylene imine treatment) was used for B/F separation. A beta plate was used for measurement of the radioactivity to evaluate the effect of the compound.

The nature of a further data set: Acute toxicity test. Conditions: male, mouse, in vivo, iv, ddY mice, death rate up to 24 hours after administration. How it is done: A pharmaceutical preparation was administered intravenously to ddY mice (male, 6 weeks old). The 50% lethal dosage LD50 of the acute toxicity was calculated by an ordinary method from the death rate up to 24 hours after administration.

The next data set deals with Sodium channel. In words: Inhibitory effect of veratrizine-induced sodium channel activity (synaptozome membrane potential, Rhodamine 6G). Format: biochemical, Wistar rats. To be noted: compound 0.1 μM; rat brain synaptozomes, veratrizine-induced depolarization. The text has this: Inhibitory Effect of Veratrizine-induced Sodium Channel Activity

T1 sequence (P61169 whole entry): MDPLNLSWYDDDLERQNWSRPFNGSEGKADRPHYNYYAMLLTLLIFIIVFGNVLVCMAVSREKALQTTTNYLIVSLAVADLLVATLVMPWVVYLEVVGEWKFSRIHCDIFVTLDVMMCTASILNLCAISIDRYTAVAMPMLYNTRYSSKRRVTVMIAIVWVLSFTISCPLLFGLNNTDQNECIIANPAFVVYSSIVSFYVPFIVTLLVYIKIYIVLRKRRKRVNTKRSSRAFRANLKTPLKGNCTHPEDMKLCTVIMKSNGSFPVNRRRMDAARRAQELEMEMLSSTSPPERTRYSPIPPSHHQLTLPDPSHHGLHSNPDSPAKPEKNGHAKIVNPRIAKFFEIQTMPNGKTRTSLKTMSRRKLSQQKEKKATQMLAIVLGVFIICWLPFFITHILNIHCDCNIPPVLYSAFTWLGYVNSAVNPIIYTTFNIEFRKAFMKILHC

As to `COc1ccc(N)cc1OC[C@@H](O)CN1CCN(c2ccc(Cc3ccc(F)cc3)cc2)CC1` [Compound 44, (2S)-1-[(5-amino-2-methoxy)phenoxy]-3-[4-(4-(4-fluorophenyl)methylphenyl)piperazin-1-yl]-2-propanol], the inhibition in vivo at 10 mg/kg in the data set with DBA/2N type mice is 80%.
Take `Cc1cc(OC[C@@H](O)CN2CCN(c3ccc(Cc4ccc(F)cc4)cc3)CC2)c(C)c(C)c1N` [Compound 28, (2S)-1-[(4-amino-2,3,5-trimethyl)phenoxy]-3-[4-(4-(4-fluorophenyl)methylphenyl)piperazin-1-yl]-2-propanol]: the IC50 (in general, the concentration that gives 50% inhibition) in the data set on T-type Ca^2+ channel was determined as 3 µM; on Dopamine D2 receptor, 12 µM. In the data set with DBA/2N type mice, the inhibition in vivo at 10 mg/kg worked out at 76%. Moreover, the LD50 (commonly the dose expected to kill half of the subjects tested) at 24 h in “Acute toxicity test” is 47.3 mg/kg.
As for `Cc1c(C)c(NCC(O)CN2CCC(c3ccc(Oc4ccccc4)cc3)CC2)c(C)c(C)c1N` (centres unmarked) [Compound 58, 3-[(4-amino-2,3,5,6-tetramethyl)phenylamino]-1-[4-(4-phenoxyphenyl)piperidin-1-yl]-2-propanol], the inhibition in vivo at 10 mg/kg with DBA/2N type mice amounted to 68%.
In the case of `COc1ccc(NC[C@H](O)CN2CCC(c3ccc(Oc4ccccc4)cc3)CC2)c(C)c1` [Compound 57], in the data set with DBA/2N type mice, the “Antiseizure effect (suppression rate %)” value is reported as 68%.
Regarding `Nc1ccc(OC[C@@H](O)CN2CCC(c3ccc(Oc4ccccc4)cc3)CC2)cc1` [Compound 25, (2S)-1-(4-aminophenoxy)-3-[4-(4-phenoxyphenyl)piperidin-1-yl]-2-propanol], the “Anti-veratrizine effect (inhibiting rate %)” value in the data set with Sodium channel is 21%. In the data set with DBA/2N type mice, the inhibition in vivo at 10 mg/kg came out at 58%.
`COc1ccc(NCC(O)CN2CCC(c3ccc(Oc4ccccc4)cc3)CC2)c(C)c1` (centres unmarked) [Compound 53, 1-[4-(4-phenoxyphenyl)piperidin-1-yl]-3-[(4-methoxy-2-methyl)phenylamino]-2-propanol]: the IC50 in the data set with T-type Ca^2+ channel was determined as 2.2 µM; on Dopamine D2 receptor, 11 µM. Moreover, in the data set on DBA/2N type mice, the “Antiseizure effect (suppression rate %)” value was determined as 46%.
As to `Cc1cc(OC[C@@H](O)CN2CCC(c3ccc(Oc4ccccc4)cc3)CC2)c(C)cc1N` [Compound 32], the inhibition in vivo at 10 mg/kg in the data set with DBA/2N type mice amounted to 70%.
With `Cc1cc(OC[C@@H](O)CN2CCC(c3ccc(Oc4ccccc4)cc3)CC2)c(C)c(C)c1N` [Compound 26, (2S)-1-[(4-amino-2,3,5-trimethyl)phenoxy]-3-[4-(4-phenoxyphenyl)piperidin-1-yl]-2-propanol], the IC50 with T-type Ca^2+ channel worked out at 3.4 µM; against Dopamine D2 receptor it was 5.6 µM. In addition, the inhibition in vivo at 10 mg/kg in the data set with DBA/2N type mice stood at 74%. In addition, the LD50 at 24 h in the data set “Acute toxicity test” was determined as 41 mg/kg.
Turning to `COc1ccc(N)cc1OC[C@@H](O)CN1CCC(c2ccc(Cc3ccc(F)cc3)cc2)CC1` [Compound 43, (2S)-1-[(5-amino-2-methoxy)phenoxy]-3-[4-(4-(4-fluorophenyl)methylphenyl)piperidin-1-yl]-2-propanol], the “Anti-veratrizine effect (inhibiting rate %)” value with Sodium channel is given as 21%. Moreover, the inhibition in vivo at 10 mg/kg in the data set on DBA/2N type mice amounted to 30%.
Take `COc1cc(Cl)c(N)cc1OC[C@@H](O)CN1CCC(c2ccc(Oc3ccccc3)cc2)CC1` [Compound 49, (2S)-1-[(5-amino-4-chloro-2-methoxy)phenoxy]-3-[4-(4-phenoxyphenyl)piperidin-1-yl]-2-propanol]: the “Anti-veratrizine effect (inhibiting rate %)” value in the data set on Sodium channel is 15.1%. Also, the inhibition in vivo at 10 mg/kg in the data set with DBA/2N type mice was 42%.
With `COc1ccc(NCC(O)CN2CCN(c3ccc(Cc4ccc(F)cc4)cc3)CC2)c(C)c1` (centres unmarked) [Compound 55], in the data set on DBA/2N type mice, the inhibition in vivo at 10 mg/kg was 70%.
As to `Cc1cc(OC[C@@H](O)CN2CCN(c3ccc(Cc4ccc(F)cc4)cc3)CC2)c(C)cc1N` [Compound 34], the inhibition in vivo at 10 mg/kg with DBA/2N type mice is 74%.
Turning to `Cc1cc(OC[C@@H](O)CN2CCC(c3ccc(Cc4ccc(F)cc4)cc3)CC2)c(C)cc1N` [Compound 33, (2S)-1-[(4-amino-2,5-dimethyl)phenoxy]-3-[4-(4-(4-fluorophenyl)methylphenyl)piperidin-1-yl]-2-propanol], the inhibition in vivo at 10 mg/kg with DBA/2N type mice is 78%.
Consider `COc1ccc(NCC(O)CN2CCC(c3ccc(Cc4ccc(F)cc4)cc3)CC2)c(C)c1` (centres unmarked) [Compound 54], for which the inhibition in vivo at 10 mg/kg with DBA/2N type mice is 58%.
For `Cc1c(N)ccc(OC[C@@H](O)CN2CCC(c3ccc(Oc4ccccc4)cc3)CC2)c1C` [Compound 35, (2S)-1-[(4-amino-2,3-dimethyl)phenoxy]-3-[4-(4-phenoxyphenyl)piperidin-1-yl]-2-propanol], in the data set on DBA/2N type mice, the inhibition in vivo at 10 mg/kg came out at 74%.
Take `Cc1cc(N)c(C)c(C)c1OC[C@@H](O)CN1CCC(c2ccc(Oc3ccccc3)cc2)CC1` [Compound 38, (2S)-1-[(4-amino-2,3,6-trimethyl)phenoxy]-3-[4-(4-phenoxyphenyl)piperidin-1-yl]-2-propanol]: the inhibition in vivo at 10 mg/kg in the data set on DBA/2N type mice amounted to 92%.
Compound `Cc1cc(N)c(C)c(C)c1OC[C@@H](O)CN1CCN(c2ccc(Cc3ccc(F)cc3)cc2)CC1` [Compound 40, (2S)-1-[(4-amino-2,3,6-trimethyl)phenoxy]-3-[4-(4-(4-fluorophenyl)methylphenyl)piperazin-1-yl]-2-propanol] came in with an IC50 on Dopamine D2 receptor of 12 µM. Also, in the data set on DBA/2N type mice, the inhibition in vivo at 10 mg/kg came to 80%. Moreover, the LD50 at 24 h in “Acute toxicity test” was determined as 49.1 mg/kg.
Take `COc1ccc(NC[C@@H](O)CN2CCC(c3ccc(Oc4ccccc4)cc3)CC2)c(C)c1` [Compound 56, (2R)-1-[4-(4-phenoxyphenyl)piperidin-1-yl]-3-[(4-methoxy-2-methyl)phenylamino]-2-propanol]: the “Antiseizure effect (suppression rate %)” value in the data set with DBA/2N type mice came out at 64%.
For the compound `Cc1cc(OC[C@@H](O)CN2CCC(O)(c3ccc(-c4ccccc4)c(F)c3)CC2)c(C)c(C)c1N` [Compound 30], in the data set on DBA/2N type mice, the inhibition in vivo at 10 mg/kg amounted to 44%.
As for `Cc1cc(C)c(OC[C@@H](O)CN2CCC(c3ccc(Oc4ccccc4)cc3)CC2)c(N)c1` [Compound 46, (2S)-1-[(2-amino-4,6-dimethyl)phenoxy]-3-[4-(4-phenoxyphenyl)piperidin-1-yl]-2-propanol], the inhibition in vivo at 10 mg/kg in the data set on DBA/2N type mice came to 88%.
`Cc1cc(C)c(OC[C@@H](O)CN2CCN(c3ccc(Cc4ccc(F)cc4)cc3)CC2)c(N)c1` [Compound 48, (2S)-1-[(2-amino-4,6-dimethyl)phenoxy]-3-[4-(4-(4-fluorophenyl)methylphenyl)piperazin-1-yl]-2-propanol]: in the data set on DBA/2N type mice, the inhibition in vivo at 10 mg/kg was 70%.
As to `COc1ccc(N)cc1OC[C@@H](O)CN1CCC(c2ccc(Oc3ccc(F)cc3)cc2)CC1` [Compound 42, (2S)-1-[(5-amino-2-methoxy)phenoxy]-3-[4-(4-(4-fluorophenoxy)phenyl)piperidin-1-yl]-2-propanol], the “Anti-veratrizine effect (inhibiting rate %)” value in the data set with Sodium channel is recorded as 10.3%. Besides, in the data set on DBA/2N type mice, the inhibition in vivo at 10 mg/kg amounted to 50%.
Turning to `Nc1cc(Cl)c(OC[C@@H](O)CN2CCC(c3ccc(Oc4ccccc4)cc3)CC2)c(Cl)c1` [Compound 51, (2S)-1-[(4-amino-2,6-dichloro)phenoxy]-3-[4-(4-phenoxyphenyl)piperidin-1-yl]-2-propanol], the inhibition in vivo at 10 mg/kg with DBA/2N type mice came out at 74%.
As to `Cc1cc(OC[C@@H](O)CN2CCC(c3ccc(OC4CCCC4)cc3)CC2)c(C)c(C)c1N` [Compound 31, (2S)-1-[(4-amino-2,3,5-trimethyl)phenoxy]-3-[4-(4-cyclopentyloxyphenyl)piperidin-1-yl]-2-propanol], the inhibition in vivo at 10 mg/kg with DBA/2N type mice was 74%.
With `Cc1c(N)ccc(OC[C@@H](O)CN2CCC(c3ccc(Cc4ccc(F)cc4)cc3)CC2)c1C` [Compound 36, (2S)-1-[(4-amino-2,3-dimethyl)phenoxy]-3-[4-(4-(4-fluorophenyl)methylphenyl)piperidin-1-yl]-2-propanol], the inhibition in vivo at 10 mg/kg with DBA/2N type mice is 68%.
For the compound `COc1ccc(N)cc1OC[C@@H](O)CN1CCC(c2ccc(OC3CCCC3)cc2)CC1` [Compound 45], in the data set with DBA/2N type mice, the inhibition in vivo at 10 mg/kg was found to be 44%.
For `Cc1cc(C)c(OC[C@@H](O)CN2CCC(c3ccc(Cc4ccc(F)cc4)cc3)CC2)c(N)c1` [Compound 47, (2S)-1-[(2-amino-4,6-dimethyl)phenoxy]-3-[4-(4-(4-fluorophenyl)methylphenyl)piperidin-1-yl]-2-propanol], the inhibition in vivo at 10 mg/kg in the data set on DBA/2N type mice turned out to be 56%.
